Data from patent US20220213030A1, “AMINOGUANIDINE HYDRAZONES AS RETROMER STABILIZERS USEFUL FOR TREATING NEUROLOGICAL DISEASES” (OSPEDALE SAN RAFFAELE SRL, priority 2019, published 2022).

Tests used:
Cathepsin D (CTSD) = test: Cathepsin D expression and maturation in G93A mice; format: in vivo, mouse; settings: 10 mg/kg, day 100
Excerpt: We next investigated Cathepsin D (CTSD) expression and distribution in G93A mice, since it is known that the trafficking of this lysosomal enzyme involves the retromer complex (Seaman 2004). In humans, maturation of CTSD starts with a pre-pro-CTSD that is converted to pro-CTSD (52 kDa) in the endoplasmic reticulum. Recycling of pro-CTSD, and its downstream migration to acidic compartments involves CI-MPR and the retromer pathway. In late endosomes, pro-CTSD is further processed to an intermediate form (48 kDa), and finally converted to mature CTSD (34 kDa) in lysosomes (Laurent-Matha 2006). The inactivation of VPS35 or the knockdown of VPS26 affect the maturation of CTSD. We scored CTSD levels in equal amounts of lumbar SC extracts obtained from vehicle-treated WT, G93A mice receiving the vehicle, and G93A treated with lead 2a. […] We next analyzed CTSD levels in MNs by confocal microscopy. We observed a significant reduction of this protease in MNs of vehicle-treated G93A, while such levels increased in G93A mice treated with compound 2a (FIG. 11F). Similarly, numbers of CTSD^+ puncta in lumbar NeuN^+ MNs were reduced in vehicle-treated G93A MNs, while they increased in compound 2a-treated mice (FIG. 11F).
Fluorescence intensity levels of VPS35, VPS26, Sortilin, CTSD and Ubiquitin were calculated using NHI-Image J software (US National Institutes of Health) according to the following protocol: stacks of confocal images were used to generate the maximal projections (Las-X) and then post-processed by NHI-Image J to crop single NeuN^+ MNs from the ventral horn of the spinal cord. We next performed background (calculated on adjacent slices only receiving secondary antibodies) subtraction for each channel, before applying the NHI-Image J mean filter (with radius 2.0 pixels) to calculate mean NeuN fluorescence levels in individual MN. Using this approach, we established a region of interest (ROI) that gated single MN. On this selected ROI, we calculated mean fluoresce levels (MFI) of each protein.

VPS26b = VPS26b western blot in spinal cord extracts of G93A mice; format: in vivo, mouse; settings: 10 mg/kg, day 100
Procedure: (§1) Lumbar spinal cords were dissected from saline perfused mice and rapidly homogenized in the following lysis buffer: Tris-HCl 10 mM pH 8, EDTA pH 8 1 mM, NaCl 100 mM, NP40 1% and protease inhibitor cocktail (Sigma). Protein extracts were obtained using a tight-fitting glass Potter tissue grinder (1 ml; Wheaton) and then sonicated at a frequency of 20 kHz (10 times-1s). Protein lysates from cells cultures were obtained from plates receiving PBS1× washing and subsequently the lysis buffer followed by sonication. Protein concentrations were measured by BCA protein assay kit (Thermofisher) according to the manufacturer's recommendations. Ten μg of protein extract was loaded on 10% Mini-PROTEAN TGX Stain-Free precast gels for PAGE (Bio-Rad). Gel electrophoresis was performed at 100 V for 2 hours. Gels were transferred on Immobilon®-P PVDF membrane according to the manufacturer's instructions (Millipore). Blots were blocked in 5% BSA in Tris buffered saline plus 0.1% Tween-20 (TBS-T) for 1 hour before receiving primary antibodies: goat α-VPS35 1:800 (ab10099, Abcam); rabbit α-VPS26b 1:1000 (15915-1-AP, ProteinTech); rabbit α-VPS29 1:1000 (ab236796 Abcam); mouse α-βActin 1:25000 (Sigma); mouse α-Golgin97 1:1000 (Invitrogen); mouse α-Ubiquitin 1:500 (Merk) overnight at 4° C. on shaker. […] Quantifications were done using the Image Lab 6.0.1 software (Bio-Rad).

VPS35 [1] = biological target: T1, VPS35 (Mus musculus, UniProt Q9EQH3+Q9QZ88); test: VPS35 western blot in spinal cord extracts of G93A mice; format: in vivo; settings: 10 mg/kg, day 100
Procedure: as §1

LC3 = test: pHfluorin-LC3 autophagy assay in Neuro2a clone 7B11; format: cell-based, mouse; settings: 48 hours
Procedure: Besides increasing the functionality of lysosomes we hypothesised that compound 2a could also enhance the autophagy system. Therefore we used a pHfluorin-LC3-based assay to monitor the autophagy process in living Neuro2a cells. We have established in our laboratory a Neuro2a stable cell clone (7B11) that expresses the Microtubule-associated protein 1A/1B-light chain 3 (LC3) coupled with the ph-sensitive GFP/phlourin.
Neuro2a-7B11 cells were incubated with increasing concentrations of compound 2a (0.1-100 μM) as well as with the control molecules Bafilomycin Al and Torin-1. After 48 hours the GFP/phluorin signal, which is ph-sensitive, was measured by flow cytometry and fold changes calculated over untreated cells.
Autophagy assay were done using a stable Neuro2a cell clone expressing the pHluorin-mKate2-tagged human LC3 plasmids, Cell clones were generated according our published methods (Mazzocchi 2016). Upon transfection, cells were selected by 400 μg/mL G418 Disulfate Salt Solution (Sigma-Aldrich, St. Louis, Mo.) and further cloned by limiting dilution. […] Neuro2a 7B11 cells were treated with Compound 2a (0.1-100 μM) for 48 hours then MFI levels of the pHfluorin were measured in living cells by flow cytometry.

VPS35 [2] = biological target: T1, VPS35; test: VPS35 levels in spinal cord extracts of C57BL6J mice by western blot; format: in vivo; set-up: Lumbar spinal cords were dissected from saline perfused mice and rapidly homogenized; from tissue; host or cells: lumbar spinal cord of mice; settings: 10 mg/kg daily intraperitoneal for 7 days
Procedure: We next asked whether the compound 2a can cross the blood brain barrier (BBB) of the brain. We run a pharmacokinetic assay on C57BL6J mice that received daily intraperitoneal injections of compound 2a (10 mg/Kg/day). Mice were sacrificed after 1, 7, 15 and 30 days saline perfused to avoid the CNS contamination of compounds contained in blood circulation and brains used for the determination of compound 2a levels by mass spectrometry. […] We next investigated in vivo if the retromer stabilization occurs in response to Compound 2a treatment. We intraperitoneally injected R55 and Compound 2a in adult C57BL6J mice as above described. After one week, mice were sacrificed, proteins extracts were assayed by western blot.
Lumbar spinal cords were dissected from saline perfused mice and rapidly homogenized in the following lysis buffer: Tris-HCl 10 mM pH 8, EDTA pH 8 1 mM, NaCl 100 mM, NP40 1% and protease inhibitor cocktail (Sigma). Protein extracts were obtained using a tight-fitting glass Potter tissue grinder (1 ml; Wheaton) and then sonicated at a frequency of 20 kHz (10 times-1s). […] Protein concentrations were measured by BCA protein assay kit (Thermofisher) according to the manufacturer's recommendations. […] Quantifications were done using the Image Lab 6.0.1 software (Bio-Rad).

N=C(N)NN=Cc1cccc(C=NNC(=N)N)c1 [Compound 2a, 1,3-Bis-amino guanidine phenyl hydrazone]
CTSD levels in MNs (confocal MFI) (Cathepsin D (CTSD)): increased
levels of mature CTSD (WB, lumbar SC extracts) (Cathepsin D (CTSD)): significantly increased
numbers of CTSD+ puncta in lumbar NeuN+ MNs (Cathepsin D (CTSD)): increased
VPS26b levels in SC extracts (WB) (VPS26b): increase VPS35 and VPS26b levels
VPS35 levels in SC extracts (WB) (VPS35 [1]): increase VPS35 and VPS26b levels
GFP/phluorin signals (fold changes over untreated cells) (LC3; 0.1 and 1μM): did not change
GFP/phluorin fluorescence levels (fold changes over untreated cells) (LC3; 10 and 100 μM): significant reduction of fluorescence levels
VPS35 levels in SC extracts (ratio versus vehicle-treated mice) (VPS35 [2]): ≈ 1.7
